In article PMC9672079, “Micro-PET imaging of hepatitis C virus NS3/4A protease activity using a protease-activatable retention probe” (Frontiers in Microbiology, 2022):

Tests used:
[1] = tested on: HCC36 cells; assay: Retention of TAT-ΔNS3/4A-FITC in control cells, fluorescence microscopy; format: cell-based, Human; conditions: fluorescence microscope
Experimental: (§1) HCC36 or NS3/4A-HCC36 cells (1 × 10^5) were seeded with DMEM containing 10% serum in a 24-well plate at 37°C in a CO2 incubator overnight. The cells were incubated with 10 μM of TAT-ΔNS3/4A-FITC in the presence or absence of 2 μM telaprevir (purchased from Legend Star International, Taiwan) at 37°C for 1 h. After probe staining, the cells were washed using DMEM containing 10% serum per 20 min until the end of the experiment. After 8 h washing, the fluorescence of viable cells was observed under a fluorescence microscope at the indicated times (Axiovert 200, Carl Zeiss MicroImaging, GmbH, Germany).
Infectious HCV particles were generated as previously described ([Hayashi et al., 2014]). HCC36 cells (1 × 10^5) were seeded in DMEM containing 10% serum in a 24-well plate at 37°C in a CO2 incubator overnight. The cells were infected with JFH-1 and incubated with or without 2 μM telaprevir. After 5 days, the parental HCC36 and JFH-1-infected cells were stained with 10 μM of TAT-ΔNS3/4A-FITCat 37 °C for 1 h. […] After 8 h washing, the fluorescence of viable cells was observed under a fluorescence microscope at the indicated times (Axiovert 200, Carl Zeiss MicroImaging, GmbH, Germany).
FIGURE 2 Specific retention of TAT-ΔNS3/4A-FITC in NS3/4A-HCC36- and HCV-infected cells. […] After culturing for 1 or 8 h, the phase contrast and fluorescence of viable cells were observed under a fluorescence microscope. […]

[2] = tested on: JFH-1-infected HCC36 cells; assay: Retention of TAT-ΔNS3/4A-FITC in HCV-infected cells, fluorescence microscopy; format: cell-based, Human; conditions: fluorescence microscope
Experimental: Infectious HCV particles were generated as previously described ([Hayashi et al., 2014]). HCC36 cells (1 × 10^5) were seeded in DMEM containing 10% serum in a 24-well plate at 37°C in a CO2 incubator overnight. The cells were infected with JFH-1 and incubated with or without 2 μM telaprevir. After 5 days, the parental HCC36 and JFH-1-infected cells were stained with 10 μM of TAT-ΔNS3/4A-FITCat 37 °C for 1 h. After probe staining, the cells were washed using DMEM containing 10% serum per 20 min until the end of the experiment. After 8 h washing, the fluorescence of viable cells was observed under a fluorescence microscope at the indicated times (Axiovert 200, Carl Zeiss MicroImaging, GmbH, Germany).
(§2) FIGURE 2 Specific retention of TAT-ΔNS3/4A-FITC in NS3/4A-HCC36- and HCV-infected cells. HCC36 cells, NS3/4A-HCC36 cells, or JFH-1-infected HCC36 cells were incubated with 10 μM TAT-ΔNS3/4A-FITC in the absence or presence of 2 μM telaprevir (NS3/4A protease inhibitor) at 37°C for 1 h. The cells were washed with DMEM containing 10% serum three times per hour. After culturing for 1 or 8 h, the phase contrast and fluorescence of viable cells were observed under a fluorescence microscope. Scale bar: 100 μm.

[3] = tested on: NS3/4A-HCC36 cells; assay: Specific retention of probe via flow cytometry; format: cell-based, Human
Experimental: (§3) We also used the WT probe (GRKKRRQRRR-[…]-LKKKYK-FITC) and the scrambled sequence probe (GRKKRRQRRR-[…]-LKKKYK) that could not be activated by protease as a control group to test the specific retention of probe via flow cytometry. HCC36 cells, NS3/4A-HCC36 cells, or JFH-1-infected HCC36 cells were incubated with 10 μM TAT-ΔNS3/4A-FITC or 10 μM TAT-scrambled NS3/4A-FITC in the absence or presence of 2 μM telaprevir (NS3/4A protease inhibitor) at 37 °C for 1 h. The cells were washed with DMEM containing 10% serum three times per hour. After culturing for 1 or 8 h, the fluorescence of viable cells was observed via flow cytometry.
(§4) Supplementary file Image_5.TIF: Supplementary Figure 5 To evaluate the specific retention of probe via flow cytometry, we used the WT probe (GRKKRRQRRR-[…]-LKKKYK-FITC) and the scrambled sequence probe (GRKKRRQRRR-[…]-LKKKYK) that could not be activated by protease as a control group to test the specific retention of probe via flow cytometry. HCC36 cells, NS3/4A-HCC36 cells, or JFH-1-infected HCC36 cells were incubated with 10 μM TAT-ΔNS3/4A-FITC or 10 μM TAT-scrambled NS3/4A-FITC in the absence or presence of 2 μM telaprevir (NS3/4A protease inhibitor) at 37°C for 1 h. The cells were washed with DMEM containing 10% serum three times per hour. After culturing for 1 or 8 h, the fluorescence of viable cells was observed via flow cytometry. Click here for additional data file.

[4] = tested on: HCC36 cells; assay: Specific retention of probe via flow cytometry; format: cell-based, Human; conditions: control HCC36 cells
Experimental: as §3, §4

[5] = tested on: JFH-1-infected HCC36 cells; assay: Specific retention of probe via flow cytometry; format: cell-based, Human
Experimental: as §3, §4

[6] = tested on: NS3/4A-HCC36 and HCC36 tumors; assay: Histological analysis of FITC fluorescence in tumor sections after i.v. probe; format: in vivo, BALB/c nude mice; conditions: i.v. 500 μM (in 100 μL), 4 h after injection, frozen sections, n = 3 mice
Experimental: BALB/c nude mice (n = 3) bearing established HCC36 and NS3/4A-HCC36 (100–200 mm^3) tumors in their right and left hind legs, respectively, were intravenously injected with 500 μM (in 100 μL) TAT-ΔNS3/4A-FITC and sacrificed 4 h later. Tumors were excised and embedded in OCT compound (Tissue-Tek, CA) in liquid nitrogen. The adjacent tumor sections either directly detect the FITC-fluorescent intensity to observe the accumulation of TAT-ΔNS3/4A-FITC probe or stained with a 520 HCV protease Assay Kit (AnaSpec) to visualize NS3/4A activity. The sections were examined on an upright BX4 microscope (Olympus, Melville, NY, USA) or viewed under phase contrast or fluorescence fields on an inverted Axiovert 200 microscope (Carl Zeiss Microimaging, Thornwood, NY, USA).
FIGURE 3 Specific retention of TAT-ΔNS3/4A-FITC in NS3/4A-expressing tumors in vivo. Mice bearing established NS3/4A-HCC36 and HCC36 tumors were injected with 500 μM TAT-NS3/4A-FITC and sacrificed after 4 h. Sections of NS3/4A-HCC36 (upper panels) and HCC36 (lower panels) tumors were stained with 520 HCV protease Assay Kit (AnaSpec) to detect NS3/4A activity in tumor sections. FITC-derived fluorescence (green) and NS3/4A activity (red) were observed under a fluorescence microscope. Scale bar: 1 mm.

[7] = tested on: NS3/4A-HCC36 cells; assay: Retention of TAT-ΔNS3/4A-FITC in cells, fluorescence microscopy; format: cell-based, Human; conditions: fluorescence microscope
Experimental: as §1, §2

[8] = tested on: HEK293 cells; conditions: HEK293, 0.1–2,000 ug/ml, 72 h, cell viability by cellular ATP synthesis, compared with CPT-11
[9] = 10 μM probe 1 h, washed every 20 min, 8 h
[10] = 10 μM probe, 37°C, 1 h staining
[11] = 10 μM probe + 2 μM telaprevir, 8 h
[12] = 10 μM probe 1 h, washed three times per hour, 8 h

“GRKKRRQRRR-DEDEDEDEMEECASH-LKKKYK-FITC [TAT-ΔNS3/4A-FITC]” was tested, and the “fluorescence retention after culturing for 8 h” value (“fluorescence retention … for 8 h” for short) [1, 9] was “not in control HCC36 cells”, the “fluorescence accumulation after probe staining” value (“fluorescence accumulation” below) [1, 10] was “strong fluorescence accumulated in each cell” and the “fluorescence retention … for 8 h” value [2, 9] was “strong fluorescence only accumulated in NS3/4A-HCC36 cells and HCV-infected HCC36 cells”. The “fluorescence retention after 8 h in presence of NS3/4A inhibitor” value [2, 11] was “did not accumulate”, the “fluorescence accumulation” value [2, 10] was “strong fluorescence accumulated in each cell” and the “fluorescence retention … for 8 h” value [3, 12] was “strong fluorescence of WT probe only accumulated in NS3/4A-HCC36 cells”. The “fluorescence retention after 8 h in presence of telaprevir” value [3, 11] was “could block via the 2 μM telaprevir”, the “fluorescence after 1 h probe staining” value ([3]; 10 μM probe, 37°C, 1 h) was “strong fluorescence of WT probe accumulated in each cell” and the “fluorescence retention … for 8 h” value [4, 12] was “not in control HCC36 cells”. The “fluorescence after 1 h probe staining” value ([4]; 10 μM probe, 37°C, 1 h) was “strong fluorescence of WT probe accumulated in each cell”, the “fluorescence retention … for 8 h” value [5, 12] was “strong fluorescence of WT probe only accumulated in NS3/4A-HCC36 cells and HCV-infected HCC36 cells” and the “fluorescence retention after 8 h in presence of telaprevir” value [5, 11] was “could block via the 2 μM telaprevir”. For the same substance, the “fluorescence after 1 h probe staining” value ([5]; 10 μM probe, 37°C, 1 h) was “strong fluorescence of WT probe accumulated in each cell”, the “FITC-derived fluorescence in NS3/4A-HCC36 tumor sections” value [6] was “accumulated in the NS3/4A-HCC3 tumors” and the “fluorescence retention … for 8 h” value ([7]; 10 μM probe 1 h, washed with DMEM 10% serum every 20 min, 8 h) was “strong fluorescence only accumulated in NS3/4A-HCC36 cells”. The “fluorescence retention after 8 h in presence of NS3/4A inhibitor” value [7, 11] was “did not accumulate”, the “fluorescence accumulation” value [7, 10] was “strong fluorescence accumulated in each cell” and the “in vitro toxicity, growth of HEK293” value [8] was “could not inhibit the growth of HEK293”.
